# Results from ChEMBL document CHEMBL3885881, “DrugMatrix”.
# Species: Rattus norvegicus
# Experiment: DrugMatrix - Regimen: Daily Repeat
# Assay type: toxicity, organism-based, Sprague-Dawley
# Set-up: regimen Daily Repeat, gender Male, age 6-8 weeks
# Details: in vivo, po, route oral GAVAGE, vehicle 100 % WATER; for ABSOLUTE BASOPHIL / ABSOLUTE EOSINOPHIL / ABSOLUTE LYMPHOCYTE / ABSOLUTE MONOCYTE / ABSOLUTE SEGMENTED NEUTROPHIL / BASOPHIL / EOSINOPHIL / ERYTHROCYTE COUNT / HEMATOCRIT / HEMOGLOBIN / LEUKOCYTE COUNT / LYMPHOCYTE / MEAN CORPUSCULAR HEMOGLOBIN / MEAN CORPUSCULAR HEMOGLOBIN CONCENTRATION / MEAN CORPUSCULAR VOLUME / MONOCYTE / NEUTROPHIL / NUCLEATED RED BLOOD CELLS / PLATELET COUNT: tissue Blood; for ALANINE AMINOTRANSFERASE / ALBUMIN / ALKALINE PHOSPHATASE / ASPARTATE AMINOTRANSFERASE / BLOOD UREA NITROGEN / CARBON DIOXIDE / CHLORIDE / CHOLESTEROL / CREATINE PHOSPHOKINASE / CREATININE / GLUCOSE / LACTATE DEHYDROGENASE / LIPASE / PHOSPHORUS / POTASSIUM / SODIUM / TOTAL BILIRUBIN / TOTAL PROTEIN / URIC ACID: tissue Plasma
# [1] = 0 mg/kg, 72 h, dose level Control, time 3 day
# [2] = 0 mg/kg, 120 h, dose level Control, time 5 day
# [3] = 10 mg/kg, 72 h, dose level Low, time 3 day
compound,measurement,setting,value
CC(C)(C)NC[C@H](O)COc1nsnc1N1CCOCC1 [TIMOLOL],ABSOLUTE BASOPHIL,[1],0 CELLS/uL
same,ABSOLUTE EOSINOPHIL,[1],0 CELLS/uL
same,ABSOLUTE LYMPHOCYTE,[1],8482.5 CELLS/uL
same,ABSOLUTE MONOCYTE,[1],63.83 CELLS/uL
same,ABSOLUTE SEGMENTED NEUTROPHIL,[1],887 CELLS/uL
same,BASOPHIL,[1],0%
same,EOSINOPHIL,[1],0%
same,ERYTHROCYTE COUNT,[1],5.49 x10E6/uL
same,HEMATOCRIT,[1],34.5%
same,HEMOGLOBIN,[1],13.33 G/DL
same,LEUKOCYTE COUNT,[1],9.43 x10E3/uL
same,LYMPHOCYTE,[1],90.17%
same,MEAN CORPUSCULAR HEMOGLOBIN,[1],24.3 pg
same,MEAN CORPUSCULAR HEMOGLOBIN CONCENTRATION,[1],38.63 G/DL
same,MEAN CORPUSCULAR VOLUME,[1],62.88 fL
same,MONOCYTE,[1],0.67%
same,NEUTROPHIL,[1],9.17%
same,NUCLEATED RED BLOOD CELLS,[1],0.67 /100WBC
same,PLATELET COUNT,[1],1022.83 x10E3/uL
same,ALANINE AMINOTRANSFERASE,[1],50.5 u/L
same,ALBUMIN,[1],4.08 G/DL
same,ALKALINE PHOSPHATASE,[1],368.33 u/L
same,ASPARTATE AMINOTRANSFERASE,[1],87.5 u/L
same,BLOOD UREA NITROGEN,[1],12.83 mg/dL
same,CARBON DIOXIDE,[1],32.83 mmol/L
same,CHLORIDE,[1],99.67 MEQ/L
same,CHOLESTEROL,[1],79.67 mg/dL
same,CREATINE PHOSPHOKINASE,[1],585 u/L
same,CREATININE,[1],0.22 mg/dL
same,GLUCOSE,[1],135.67 mg/dL
same,LACTATE DEHYDROGENASE,[1],171 u/L
same,LIPASE,[1],9.5 u/L
same,PHOSPHORUS,[1],11.18 mg/dL
same,POTASSIUM,[1],6.25 MEQ/L
same,SODIUM,[1],144.87 MEQ/L
same,TOTAL BILIRUBIN,[1],0.2 mg/dL
same,TOTAL PROTEIN,[1],6.08 G/DL
same,URIC ACID,[1],0.65 mg/dL
same,ABSOLUTE BASOPHIL,[2],0 CELLS/uL
same,ABSOLUTE EOSINOPHIL,[2],14.5 CELLS/uL
same,ABSOLUTE LYMPHOCYTE,[2],7596.17 CELLS/uL
same,ABSOLUTE MONOCYTE,[2],69.67 CELLS/uL
same,ABSOLUTE SEGMENTED NEUTROPHIL,[2],503 CELLS/uL
same,BASOPHIL,[2],0%
same,EOSINOPHIL,[2],0.17%
same,ERYTHROCYTE COUNT,[2],5.49 x10E6/uL
same,HEMATOCRIT,[2],34.72%
same,HEMOGLOBIN,[2],13.47 G/DL
same,LEUKOCYTE COUNT,[2],8.18 x10E3/uL
same,LYMPHOCYTE,[2],92.17%
same,MEAN CORPUSCULAR HEMOGLOBIN,[2],24.57 pg
same,MEAN CORPUSCULAR HEMOGLOBIN CONCENTRATION,[2],38.82 G/DL
same,MEAN CORPUSCULAR VOLUME,[2],63.3 fL
same,MONOCYTE,[2],1%
same,NEUTROPHIL,[2],6.67%
same,NUCLEATED RED BLOOD CELLS,[2],0 /100WBC
same,PLATELET COUNT,[2],1141 x10E3/uL
same,ALANINE AMINOTRANSFERASE,[2],48.33 u/L
same,ALBUMIN,[2],4.07 G/DL
same,ALKALINE PHOSPHATASE,[2],395.67 u/L
same,ASPARTATE AMINOTRANSFERASE,[2],85.67 u/L
same,BLOOD UREA NITROGEN,[2],15.83 mg/dL
same,CARBON DIOXIDE,[2],31.33 mmol/L
same,CHLORIDE,[2],100.83 MEQ/L
same,CHOLESTEROL,[2],62.33 mg/dL
same,CREATINE PHOSPHOKINASE,[2],248.33 u/L
same,CREATININE,[2],0.2 mg/dL
same,GLUCOSE,[2],135.67 mg/dL
same,LACTATE DEHYDROGENASE,[2],141.33 u/L
same,LIPASE,[2],9.5 u/L
same,PHOSPHORUS,[2],10.73 mg/dL
same,POTASSIUM,[2],6.07 MEQ/L
same,SODIUM,[2],145.35 MEQ/L
same,TOTAL BILIRUBIN,[2],0.22 mg/dL
same,TOTAL PROTEIN,[2],6.12 G/DL
same,URIC ACID,[2],0.63 mg/dL
same,ABSOLUTE BASOPHIL,[3],0 CELLS/uL
same,ABSOLUTE EOSINOPHIL,[3],0 CELLS/uL
same,ABSOLUTE LYMPHOCYTE,[3],11252 CELLS/uL
same,ABSOLUTE MONOCYTE,[3],71.67 CELLS/uL
same,ABSOLUTE SEGMENTED NEUTROPHIL,[3],843 CELLS/uL
same,BASOPHIL,[3],0%
same,EOSINOPHIL,[3],0%
same,ERYTHROCYTE COUNT,[3],5.24 x10E6/uL
same,HEMATOCRIT,[3],32.97%
same,HEMOGLOBIN,[3],12.83 G/DL
same,LEUKOCYTE COUNT,[3],12.17 x10E3/uL
same,LYMPHOCYTE,[3],92.33%
same,MEAN CORPUSCULAR HEMOGLOBIN,[3],24.5 pg
same,MEAN CORPUSCULAR HEMOGLOBIN CONCENTRATION,[3],38.93 G/DL
same,MEAN CORPUSCULAR VOLUME,[3],62.97 fL
same,MONOCYTE,[3],0.67%
same,NEUTROPHIL,[3],7%
same,NUCLEATED RED BLOOD CELLS,[3],0 /100WBC
same,PLATELET COUNT,[3],939 x10E3/uL
same,ALANINE AMINOTRANSFERASE,[3],57 u/L
same,ALBUMIN,[3],4.03 G/DL
same,ALKALINE PHOSPHATASE,[3],444 u/L
same,ASPARTATE AMINOTRANSFERASE,[3],84.67 u/L
same,BLOOD UREA NITROGEN,[3],14.67 mg/dL
same,CARBON DIOXIDE,[3],33 mmol/L
same,CHLORIDE,[3],100 MEQ/L
same,CHOLESTEROL,[3],81.67 mg/dL
same,CREATINE PHOSPHOKINASE,[3],370 u/L
same,CREATININE,[3],0.37 mg/dL
same,GLUCOSE,[3],138.33 mg/dL
same,LACTATE DEHYDROGENASE,[3],111.33 u/L
same,LIPASE,[3],10.67 u/L
same,PHOSPHORUS,[3],11.57 mg/dL
same,POTASSIUM,[3],6.01 MEQ/L
same,SODIUM,[3],145.4 MEQ/L
same,TOTAL BILIRUBIN,[3],0.17 mg/dL
same,TOTAL PROTEIN,[3],5.77 G/DL
same,URIC ACID,[3],0.6 mg/dL
